Patent publication US20080145858A1, “DETECTION AND IDENTIFICATION OF TOXICANTS BY MEASUREMENT OF GENE […]” (priority 2003, published 2008)
Marks after values point to notes of the source that are not given here.

Tested on: Xenopus laevis neurulation stage embryos (stage 15)
Assay: Xenopus cDNA microarray, differential gene expression after PMA treatment during neurulation (Group II)
Format: in vivo
Conditions: PMA, stage 15
Description: Specifically, the method and screen of the present invention function as follows. EST clones produced from Xenopus laevis unfertilized eggs were used in the present study with ˜1,200 EST clones from a 18,500 EST clone set selected for production of a Xenopus cDNA microarray. The Xenopus microarray was used to measure the effect of chemical treatment on Xenopus embryo gene regulation. The chemical treatment was a phorbol ester, PMA. Xenopus eggs were obtained from females induced for ovulation and fertilized in vitro. Control Xenopus laevis embryos were allowed to develop to stage 8 blastula or stage 15 neurula. Treated embryos were exposed to PMA during cleavage stage or during neurulation with end points of blastula (stage 8) or neurula (stage 15). Specifically, PMA 100 ng/ml was added to the incubation media during cleavage stages for evaluation in stage 8 embryo or PMA was added during neural induction for evaluation in stage 15 embryos. RNA extracted from the embryos was used to generate fluorescent cDNA probes for Xenopus microarray analyses to measure differential gene expression with and without the phorbol ester treatment. Analysis was performed using paired RNA samples to compare PMA-treated and untreated embryos: Group I measured the effects of PMA-treatment during the cleavage stage in stage 8 embryos and Group II measured the effects of PMA-treatment during neurulation in stage 15 embryos. Group III measured the change in gene expression between stage 8 and stage 15 embryos.
cDNA fragments were obtained by PCR replication of Xenopus laevis unfertilized egg cDNA inserts, purified, quantitated and loaded onto glass chips by robotics. In addition to the selected ˜1,200 genes, 64 lambda Q gene, an internal control cDNA (Genomic Solutions, Inc., Ann Arbor, Mich.) was loaded on the chip. The insert DNA from ˜1,200 clones were PCR amplified using forward and reverse primers (GF.200 primers, Research Genetics, Huntsville, Ala.). A second PCR was carried out using 1 μl of the primary PCR (20 μl) for template. Excess dNTPs, polymerase and other PCR artifacts were removed from the secondary PCR reactions using Millipore Multiscreen plates (Millipore Corporation, Bedford, Mass.) using the standard protocol. The purity of the PCR products was assessed by electrophoresis and documented using an Alphalmager 1000 Digital Imaging System (Alpha Innotech Corporation, San Leandro, Calif.). The DNA obtained by PCR was quantitated using PicoGreen (Molecular Probes, Eugene, Oreg.). The DNA was denatured and arrayed onto amino-silane coated microscope slides (CMT-GAPS coated slides, Corning, Corning, N.Y.) using a Flexys robotic workstation (Genomic Solutions Inc.). The ˜1,200 PCR products were arrayed in duplicate on each slide and cross-linked. Each gene chip contained duplicate cDNA samples.
Total RNA was prepared from embryos treated in three separate dishes per treatment group that were pooled. Total RNA was isolated from the frog embryos (1,200 embryos for each probe production) using TRIzol extraction (Gibco BRL, Grand Island, N.Y.) and Qiagen RNeasy kits (Qiagen, Valencia, Calif.). The ethanol precipitated RNA was resuspended in RNase-free water, quantitated with RiboGreen (Molecular Probes, Eugene, Oreg.). Total RNA was further purified using oligoTex mRNA maxi kit (Qiagen Co.) with the bound mRNA eluted with minimum volume of elution buffer and precipitated with ethanol. The recovery rate of mRNA by the ethanol precipitation method was ˜70%. Cy3- or Cy5-tagged probes were produced from an mRNA mixture (20 μl) of Xenopus mRNA (5 μg) and lambda Q gene mRNA (3.5 ng) reverse-transcribed with oligo(dT)18-22 primer and dNTPs and the reverse-transcribed cDNA was cross-linked with Cy3 or Cy5 as described in Clontech Atlas™ Glass Fluorescent Labeling kit manual (www.clontech.com). After hydrolysis of the RNA and purification of the probe (Centricon 50, Millipore, Bedford, Mass.), the cDNA in TE buffer was quantitated by absorbance at 260 nm. […]

Structure (SMILES): CCCCCCCCCCCCCC(=O)O[C@@H]1[C@@H](C)[C@@]2(O)[C@@H](C=C(CO)C[C@]3(O)C(=O)C(C)=C[C@@H]23)[C@@H]2C(C)(C)[C@]12OC(C)=O [PMA, phorbol 12-myristate 12-acetate]
- Cy3/Cy5 by Landmarks (0.25) (PBX0135G07 mRNA): 3.95
- Cy3/Cy5 by all Data Points (0.469) (PBX0135G07 mRNA): 2.11
- Normalized by Landmarks (0.25) (PBX0135G07 mRNA): 0.253
- Normalized by all Data Points (0.469) (PBX0135G07 mRNA): 0.474
- Ratio of Medians (Cy5/Cy3) First Spot (PBX0135G07 mRNA): 0.98
- Ratio of Medians (Cy5/Cy3) Mean (PBX0135G07 mRNA): 1.01 ± 0.03 ^a
- Ratio of Medians (Cy5/Cy3) Second Spot (PBX0135G07 mRNA): 1.04
- Cy3/Cy5 by Landmarks (0.25) (PBX0135H08 mRNA): 4.93
- Cy3/Cy5 by all Data Points (0.469) (PBX0135H08 mRNA): 2.63
- Normalized by Landmarks (0.25) (PBX0135H08 mRNA): 0.203
- Normalized by all Data Points (0.469) (PBX0135H08 mRNA): 0.380
- Ratio of Medians (Cy5/Cy3) First Spot (PBX0135H08 mRNA): 0.78
- Ratio of Medians (Cy5/Cy3) Mean (PBX0135H08 mRNA): 0.81 ± 0.03 ^a
- Ratio of Medians (Cy5/Cy3) Second Spot (PBX0135H08 mRNA): 0.84
- Normalized by Landmarks (0.25) (PBX 0136C09 mRNA): 1.53
- Normalized by all Data Points (0.469) (PBX 0136C09 mRNA): 2.87
- Ratio of Medians (Cy5/Cy3) First Spot (PBX 0136C09 mRNA): 4.19
- Ratio of Medians (Cy5/Cy3) Mean (PBX 0136C09 mRNA): 6.12 ± 1.93 ^a
- Ratio of Medians (Cy5/Cy3) Second Spot (PBX 0136C09 mRNA): 8.05
- Normalized by Landmarks (0.25) (PBX 0136C12 mRNA): 1.51
- Normalized by all Data Points (0.469) (PBX 0136C12 mRNA): 2.82
- Ratio of Medians (Cy5/Cy3) First Spot (PBX 0136C12 mRNA): 5.29
- Ratio of Medians (Cy5/Cy3) Mean (PBX 0136C12 mRNA): 6.02 ± 0.73 ^a
- Ratio of Medians (Cy5/Cy3) Second Spot (PBX 0136C12 mRNA): 6.75
- Normalized by Landmarks (0.25) (PBX 0136F03 mRNA): 1.54
- Normalized by all Data Points (0.469) (PBX 0136F03 mRNA): 2.90
- Ratio of Medians (Cy5/Cy3) First Spot (PBX 0136F03 mRNA): 3.67
- Ratio of Medians (Cy5/Cy3) Mean (PBX 0136F03 mRNA): 6.18 ± 2.5 ^a
- Ratio of Medians (Cy5/Cy3) Second Spot (PBX 0136F03 mRNA): 8.68
- Normalized by Landmarks (0.25) (PBX 0136G06 mRNA): 1.36
- Normalized by all Data Points (0.469) (PBX 0136G06 mRNA): 2.54
- Ratio of Medians (Cy5/Cy3) First Spot (PBX 0136G06 mRNA): 4.95
- Ratio of Medians (Cy5/Cy3) Mean (PBX 0136G06 mRNA): 5.42 ± 0.47 ^a
- Ratio of Medians (Cy5/Cy3) Second Spot (PBX 0136G06 mRNA): 5.89
- Normalized by Landmarks (0.25) (PBX 0136G08 mRNA): 1.36
- Normalized by all Data Points (0.469) (PBX 0136G08 mRNA): 2.54
- Ratio of Medians (Cy5/Cy3) First Spot (PBX 0136G08 mRNA): 4.48
- Ratio of Medians (Cy5/Cy3) Mean (PBX 0136G08 mRNA): 5.43 ± 0.94 ^a
- Ratio of Medians (Cy5/Cy3) Second Spot (PBX 0136G08 mRNA): 6.37
- Cy3/Cy5 by Landmarks (0.25) (PBX0137F04 mRNA): 3.70
- Cy3/Cy5 by all Data Points (0.469) (PBX0137F04 mRNA): 1.97
- Normalized by Landmarks (0.25) (PBX0137F04 mRNA): 0.270
- Normalized by all Data Points (0.469) (PBX0137F04 mRNA): 0.507
- Ratio of Medians (Cy5/Cy3) First Spot (PBX0137F04 mRNA): 0.95
- Ratio of Medians (Cy5/Cy3) Mean (PBX0137F04 mRNA): 1.08 ± 0.13 ^a
- Ratio of Medians (Cy5/Cy3) Second Spot (PBX0137F04 mRNA): 1.21
- Normalized by Landmarks (0.25) (PBX 0138E11 mRNA): 1.57
- Normalized by all Data Points (0.469) (PBX 0138E11 mRNA): 2.95
- Ratio of Medians (Cy5/Cy3) First Spot (PBX 0138E11 mRNA): 5.02
- Ratio of Medians (Cy5/Cy3) Mean (PBX 0138E11 mRNA): 6.29 ± 1.27 ^a
- Ratio of Medians (Cy5/Cy3) Second Spot (PBX 0138E11 mRNA): 7.56
- Normalized by Landmarks (0.25) (PBX 0138H03 mRNA): 1.44
- Normalized by all Data Points (0.469) (PBX 0138H03 mRNA): 2.70
- Ratio of Medians (Cy5/Cy3) First Spot (PBX 0138H03 mRNA): 6.36
- Ratio of Medians (Cy5/Cy3) Mean (PBX 0138H03 mRNA): 5.75 ± 0.61 ^a
- Ratio of Medians (Cy5/Cy3) Second Spot (PBX 0138H03 mRNA): 5.14
- Cy3/Cy5 by Landmarks (0.25) (PBX0139G06 mRNA): 3.77
- Cy3/Cy5 by all Data Points (0.469) (PBX0139G06 mRNA): 2.01
- Normalized by Landmarks (0.25) (PBX0139G06 mRNA): 0.265
- Normalized by all Data Points (0.469) (PBX0139G06 mRNA): 0.497
- Ratio of Medians (Cy5/Cy3) First Spot (PBX0139G06 mRNA): 1.06
